Values quoted from earlier work in patent US10251905B2, “Tissue maintenance” (Hibernation Therapeutics, A KF LLC, priority 2006, dated 2019).

Tests used:
[1] = target: T1, NK(3) receptor (Homo sapiens, UniProt P29371); settings: relative to NK(1)
T1 sequence (P29371 1-465): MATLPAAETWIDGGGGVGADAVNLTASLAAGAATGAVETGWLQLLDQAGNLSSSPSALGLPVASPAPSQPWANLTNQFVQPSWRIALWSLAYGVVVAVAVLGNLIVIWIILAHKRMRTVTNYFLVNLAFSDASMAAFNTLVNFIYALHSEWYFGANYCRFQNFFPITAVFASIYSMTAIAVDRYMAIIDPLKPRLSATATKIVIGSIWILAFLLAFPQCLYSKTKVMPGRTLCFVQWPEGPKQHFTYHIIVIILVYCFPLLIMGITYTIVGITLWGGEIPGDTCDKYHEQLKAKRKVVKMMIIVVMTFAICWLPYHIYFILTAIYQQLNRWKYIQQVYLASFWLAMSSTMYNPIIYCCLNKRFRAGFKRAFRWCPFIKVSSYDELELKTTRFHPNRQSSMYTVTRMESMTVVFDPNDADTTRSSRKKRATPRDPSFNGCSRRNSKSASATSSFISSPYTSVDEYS

[2] = target: T2, NK(2) receptor (Homo sapiens, UniProt P21452); settings: relative to NK(1)
T2 sequence (P21452 1-398): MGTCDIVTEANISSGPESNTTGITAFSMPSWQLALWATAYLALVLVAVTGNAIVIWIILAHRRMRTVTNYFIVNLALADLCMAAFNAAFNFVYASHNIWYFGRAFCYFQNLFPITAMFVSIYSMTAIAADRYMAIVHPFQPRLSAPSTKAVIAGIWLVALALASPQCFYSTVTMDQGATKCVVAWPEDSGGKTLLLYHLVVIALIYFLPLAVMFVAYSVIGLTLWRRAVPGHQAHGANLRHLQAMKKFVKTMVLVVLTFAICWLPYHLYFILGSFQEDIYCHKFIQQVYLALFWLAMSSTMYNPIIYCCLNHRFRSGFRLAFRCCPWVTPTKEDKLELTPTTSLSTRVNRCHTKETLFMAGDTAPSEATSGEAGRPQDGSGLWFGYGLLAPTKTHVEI

[3] = target: human NK(1) receptor (Homo sapiens, UniProt P25103)
Chain of human NK(1) receptor (P25103 whole entry): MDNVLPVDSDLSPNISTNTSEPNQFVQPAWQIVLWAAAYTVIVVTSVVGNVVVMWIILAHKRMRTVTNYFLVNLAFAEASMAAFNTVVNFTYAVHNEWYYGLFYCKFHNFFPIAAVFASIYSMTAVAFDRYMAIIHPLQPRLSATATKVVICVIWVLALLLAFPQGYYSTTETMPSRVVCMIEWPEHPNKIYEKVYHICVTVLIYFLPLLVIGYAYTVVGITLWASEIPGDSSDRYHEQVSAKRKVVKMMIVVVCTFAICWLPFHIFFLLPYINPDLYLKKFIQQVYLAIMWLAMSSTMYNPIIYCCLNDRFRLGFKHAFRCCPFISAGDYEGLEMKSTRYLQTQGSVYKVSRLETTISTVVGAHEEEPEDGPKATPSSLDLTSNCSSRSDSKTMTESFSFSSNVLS

SMILES | selectivity toward NK(3) receptors [1] | selectivity toward NK(2) receptors [2] | Ki [3] [nM] | half life in the blood
Cc1cccc(C)c1NC(=O)C[C@H]1CCN(C(=O)c2cc(C(F)(F)F)cc(C(F)(F)F)c2)[C@@H](Cc2ccccc2)C1.O=C(O)C[C@H](O)C(=O)O (relative stereo) [R116301, (2R-trans)-4-[1-[3,5-bis(trifluoromethyl)benzoyl]-2-(phenylmethyl)-4-piperidinyl]-N-(2,6-dimethylphenyl)-1-acetamide (S)-Hydroxybutanedioate] | over 200 fold | over 200 fold | 0.45 | –
Nc1ncnc2c1ncn2[C@@H]1O[C@H](CO)[C@@H](O)[C@H]1O [adenosine] | – | – | – | about 10 seconds
